# According to ChEMBL document CHEMBL1629673, “Role of known molecular markers of resistance in the antimalarial potency of piperaquine and dihydroartemisinin in vitro” (Antimicrob Agents Chemother, 2009):
# Assays:
# [1] = tested on: Plasmodium falciparum; experiment: microbe, parasite or virus in culture; conditions: D10, 3 h
# [2] = tested on: Plasmodium falciparum; experiment: Antiplasmodial activity against chloroquine-resistant Plasmodium falciparum 7G8 harboring D10 pfcrt allele infected in erythrocytes assessed as [3H]hypoxanthine incorporation in presence of piperaquine; format: functional
# [3] = tested on: Plasmodium falciparum; experiment: Antiplasmodial activity against chloroquine-resistant Plasmodium falciparum K1 infected in erythrocytes assessed as [3H]hypoxanthine incorporation in presence of piperaquine; format: functional
# [4] = tested on: Plasmodium falciparum; experiment: microbe, parasite or virus in culture; conditions: D10, 3 h; remark: listed apart in the source
# [5] = tested on: Plasmodium falciparum; experiment: Antiplasmodial activity against chloroquine-resistant Plasmodium falciparum C6harboring 7G8 pfcrt allele infected in erythrocytes assessed as [3H]hypoxanthine incorporation in presence of piperaquine; format: functional, C6
# [6] = tested on: Plasmodium falciparum; experiment: microbe, parasite or virus in culture; conditions: 3D7, 3 h
# [7] = tested on: Plasmodium falciparum; experiment: microbe, parasite or virus in culture; conditions: C2, 3 h
# [8] = tested on: Plasmodium falciparum; experiment: microbe, parasite or virus in culture; conditions: TM6, 3 h
# [9] = tested on: Plasmodium falciparum; experiment: Antiplasmodial activity against chloroquine-sensitive Plasmodium falciparum 3D7 infected in erythrocytes assessed as [3H]hypoxanthine incorporation in presence of piperaquine; format: functional
# [10] = tested on: Plasmodium falciparum; experiment: microbe, parasite or virus in culture; conditions: C6, 3 h
# [11] = tested on: Plasmodium falciparum; experiment: microbe, parasite or virus in culture; conditions: C3, 3 h
# [12] = tested on: Plasmodium falciparum; experiment: Antiplasmodial activity against chloroquine-resistant Plasmodium falciparum 7G8 harboring parental pfcrt allele infected in erythrocytes assessed as [3H]hypoxanthine incorporation in presence of piperaquine; format: functional
# [13] = tested on: Plasmodium falciparum; experiment: microbe, parasite or virus in culture; conditions: 7G8, 3 h
# [14] = tested on: Plasmodium falciparum; experiment: Antiplasmodial activity against chloroquine-resistant Plasmodium falciparum 7G8 infected in erythrocytes assessed as [3H]hypoxanthine incorporation in presence of piperaquine; format: functional
# [15] = tested on: Plasmodium falciparum; experiment: microbe, parasite or virus in culture; conditions: K1, 3 h
# [16] = tested on: Plasmodium falciparum; experiment: microbe, parasite or virus in culture; conditions: 7G8, 3 h; remark: listed apart in the source
# [17] = tested on: Plasmodium falciparum; experiment: Antiplasmodial activity against chloroquine-resistant Plasmodium falciparum TM6 infected in erythrocytes assessed as [3H]hypoxanthine incorporation in presence of piperaquine; format: functional
# [18] = tested on: Plasmodium falciparum; experiment: microbe, parasite or virus in culture; conditions: 7G8, 3 h; remark: listed apart in the source
# [19] = tested on: Plasmodium falciparum; experiment: Antiplasmodial activity against chloroquine-sensitive Plasmodium falciparum D10 harboring 7G8 pfcrt allele infected in erythrocytes assessed as [3H]hypoxanthine incorporation in presence of piperaquine; format: functional
# [20] = tested on: Plasmodium falciparum; experiment: Antiplasmodial activity against chloroquine-resistant Plasmodium falciparum 7G8 infected in erythrocytes assessed as [3H]hypoxanthine incorporation in presence of dihydroartimisinin; format: functional
# [21] = tested on: Plasmodium falciparum; experiment: Antiplasmodial activity against chloroquine-resistant Plasmodium falciparum 7G8 harboring parental pfcrt allele infected in erythrocytes assessed as [3H]hypoxanthine incorporation in presence of dihydroartimisinin; format: functional
# [22] = tested on: Plasmodium falciparum; experiment: Antiplasmodial activity against chloroquine-resistant Plasmodium falciparum C3 harboring Dd2 pfcrt allele infected in erythrocytes assessed as [3H]hypoxanthine incorporation in presence of dihydroartimisinin; format: functional
# [23] = tested on: Plasmodium falciparum; experiment: Antiplasmodial activity against chloroquine-sensitive Plasmodium falciparum 3D7 infected in erythrocytes assessed as [3H]hypoxanthine incorporation in presence of dihydroartimisinin; format: functional
# [24] = tested on: Plasmodium falciparum; experiment: Antiplasmodial activity against chloroquine-sensitive Plasmodium falciparum D10 infected in erythrocytes assessed as [3H]hypoxanthine incorporation in presence of dihydroartimisinin; format: functional
# [25] = tested on: Plasmodium falciparum; experiment: Antiplasmodial activity against chloroquine-resistant Plasmodium falciparum K1 infected in erythrocytes assessed as [3H]hypoxanthine incorporation in presence of dihydroartimisinin; format: functional
# [26] = tested on: Plasmodium falciparum; experiment: Antiplasmodial activity against chloroquine-resistant Plasmodium falciparum TM6 infected in erythrocytes assessed as [3H]hypoxanthine incorporation in presence of dihydroartimisinin; format: functional
# [27] = tested on: Plasmodium falciparum; experiment: Antiplasmodial activity against chloroquine-resistant Plasmodium falciparum C6harboring 7G8 pfcrt allele infected in erythrocytes assessed as [3H]hypoxanthine incorporation in presence of dihydroartimisinin; format: functional, C6
# [28] = tested on: Plasmodium falciparum; experiment: Antiplasmodial activity against chloroquine-sensitive Plasmodium falciparum D10 harboring 7G8 pfcrt allele infected in erythrocytes assessed as [3H]hypoxanthine incorporation in presence of dihydroartimisinin; format: functional
# [29] = tested on: Plasmodium falciparum; experiment: Antiplasmodial activity against chloroquine-resistant Plasmodium falciparum 7G8 harboring D10 pfcrt allele infected in erythrocytes assessed as [3H]hypoxanthine incorporation in presence of dihydroartimisinin; format: functional
# [30] = tested on: Plasmodium falciparum; experiment: Antiplasmodial activity against chloroquine-sensitive Plasmodium falciparum C2 infected in erythrocytes assessed as [3H]hypoxanthine incorporation in presence of dihydroartimisinin; format: functional
# [31] = tested on: Plasmodium falciparum; experiment: Selectivity ratio of IC50 for chloroquine-resistant Plasmodium falciparum C3 harboring Dd2 pfcrt allele to IC50 for chloroquine-sensitive Plasmodium falciparum C2; format: functional
smiles,measurement,setting,value
C[C@H]1[C@@H](O)O[C@@H]2O[C@@]3(C)CC[C@H]4[C@H](C)CC[C@@H]1[C@@]24OO3 [ARTENIMOL],IC50,[1],0.7 nM
same,fractional inhibitory concentration index (FICI),[2],1.34
same,fractional inhibitory concentration index (FICI),[3],1.27
same,IC50,[4],0.7 nM
same,fractional inhibitory concentration index (FICI),[5],2.51
same,IC50,[6],0.6 nM
same,IC50,[7],0.8 nM
same,IC50,[8],1 nM
same,fractional inhibitory concentration index (FICI),[9],2.4
same,IC50,[10],0.3 nM
same,IC50,[11],1 nM
same,fractional inhibitory concentration index (FICI),[12],0.8
same,IC50,[13],0.6 nM
same,fractional inhibitory concentration index (FICI),[14],2.86
same,IC50,[15],1 nM
same,IC50,[16],1.3 nM
same,fractional inhibitory concentration index (FICI),[17],1.25
same,IC50,[18],1.3 nM
same,fractional inhibitory concentration index (FICI),[19],1.34
Clc1ccc2c(N3CCN(CCCN4CCN(c5ccnc6cc(Cl)ccc56)CC4)CC3)ccnc2c1 [PIPERAQUINE],fractional inhibitory concentration index (FICI),[20],2.86
same,IC50,[1],8.1 nM
same,fractional inhibitory concentration index (FICI),[21],0.8
same,fractional inhibitory concentration index (FICI),[22],1.7
same,fractional inhibitory concentration index (FICI),[23],2.4
same,fractional inhibitory concentration index (FICI),[24],1.48
same,IC50,[6],3.4 nM
same,fractional inhibitory concentration index (FICI),[25],1.27
same,IC50,[7],3.9 nM
same,fractional inhibitory concentration index (FICI),[26],1.25
same,IC50,[8],15.8 nM
same,fractional inhibitory concentration index (FICI),[27],2.51
same,IC50,[10],6.6 nM
same,IC50,[11],11.5 nM
same,fractional inhibitory concentration index (FICI),[28],1.34
same,IC50,[13],9.1 nM
same,fractional inhibitory concentration index (FICI),[29],1.34
same,fractional inhibitory concentration index (FICI),[30],1.59
same,IC50,[15],13.4 nM
same,IC50,[16],12 nM
same,IC50,[18],11.2 nM
same,fold change (FC),[31],3
